Structures can show the parent of a compound that is named as a salt. Where two headings read alike, the source gives them in different places. Starred links: 1 amine or outer side, 2 acyl side, 3 side chain; linkers in the order of their positions; H or OH if unused. Non-standard residues stand in square brackets, D forms with d. No end group written: not given here. βAsp = O=C(O)[C@H](CC(=O)[*:2])N[*:1]
Tests used:
cCaSR [1] = target: T1, cCaSR (Felis catus, UniProt C7FF08); assay: cell-based
T1 sequence (C7FF08 1-1081): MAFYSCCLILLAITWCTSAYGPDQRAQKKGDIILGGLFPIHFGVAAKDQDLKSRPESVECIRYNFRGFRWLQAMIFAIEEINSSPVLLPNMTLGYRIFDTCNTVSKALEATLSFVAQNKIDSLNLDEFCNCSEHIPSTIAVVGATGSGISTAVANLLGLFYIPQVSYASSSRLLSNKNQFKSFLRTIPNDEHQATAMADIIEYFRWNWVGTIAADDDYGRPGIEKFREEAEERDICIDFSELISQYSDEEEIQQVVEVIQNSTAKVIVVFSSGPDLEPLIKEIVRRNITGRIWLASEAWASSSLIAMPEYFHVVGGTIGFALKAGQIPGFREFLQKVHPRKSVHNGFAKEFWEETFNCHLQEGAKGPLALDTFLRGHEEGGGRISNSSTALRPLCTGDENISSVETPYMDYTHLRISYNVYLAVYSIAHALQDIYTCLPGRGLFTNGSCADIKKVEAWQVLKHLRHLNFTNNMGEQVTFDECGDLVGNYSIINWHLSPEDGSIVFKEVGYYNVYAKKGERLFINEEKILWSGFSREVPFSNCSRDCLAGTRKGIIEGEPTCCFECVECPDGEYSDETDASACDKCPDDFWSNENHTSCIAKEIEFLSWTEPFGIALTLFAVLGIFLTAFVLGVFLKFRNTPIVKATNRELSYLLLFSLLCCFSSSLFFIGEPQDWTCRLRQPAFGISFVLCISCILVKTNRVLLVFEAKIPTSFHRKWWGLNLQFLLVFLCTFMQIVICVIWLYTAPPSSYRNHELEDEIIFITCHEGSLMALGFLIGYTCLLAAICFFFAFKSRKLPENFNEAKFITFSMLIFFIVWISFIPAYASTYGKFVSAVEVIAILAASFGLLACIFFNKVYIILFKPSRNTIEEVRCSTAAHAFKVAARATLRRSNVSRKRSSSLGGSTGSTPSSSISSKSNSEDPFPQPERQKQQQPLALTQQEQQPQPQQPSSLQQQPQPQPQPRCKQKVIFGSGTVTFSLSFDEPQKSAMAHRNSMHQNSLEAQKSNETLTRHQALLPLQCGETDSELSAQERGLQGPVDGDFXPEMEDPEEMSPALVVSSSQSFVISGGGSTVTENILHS

cCaSR [2] = target: T1, cCaSR; assay: cCaSR PAM luminescence assay, double injection with 0.5 mM CaCl2, HEK293/T-REx/natClytin-cCaSR
Description: The cCaSR expression constructs were stably-transfected in the mammalian cell line, HEK293/ T-REx/ natClytin. Transfections were performed by electroporation, following standard methodologies. Stably-transfected target and mock pools were obtained after 2–3 weeks of antibiotic selection, and clones were selected for testing. In order to evaluate the activity of each clone, 10 mM Calcium was injected onto the cells and the resulting luminescence was measured.
All compounds screened on the receptor were analysed in parallel with Calcium, on the HEK293/ T-REx/ natClytin-cCaSR or hCaSR stable or transient cell lines. Prior to the measurements, the cells were incubated with 10 µM of photoprotein substrate, Coelenterazine, prepared in Calcium-free Tyrode’s buffer at 37 °C for 3–4 h. All the data was captured using a FLIPR Tetra (Molecular Devices). A single or double injection protocol was used to capture the data for potential agonists and PAMs, respectively. The compounds tested were all prepared at desired concentration in Calcium-Free Tyrode’s buffer supplemented with 0.5% DMSO. For the activity determination of potential agonists, the single injection protocol was used, with CaCl2 as the positive control for each run. Each compound was injected into specific wells and the luminescence signal was measured for 1 min. for each compound. For potential PAMs, the double injection protocol was used. The first injection was identical to the one described above for potential agonists. A 20 min. resting period followed the first injection and a second injection of 0.5 mM CaCl2 in Calcium-free Tyrode’s buffer was injected to all wells, and the resulting luminescence signal was again measured for 1 min for each compound.
The half maximal effective concentrations (EC50) were identified by nonlinear regression using a variable slope model with the equation Y = Bottom + (X^Hillslope)*(Top–Bottom)/ (X^HillSlope + EC50^HillSlope), where Y is the agonist concentration, Top and Bottom are the plateaus in the same units as Y and HillSlope is the Slope factor or Hill slope. All calculations and plots were done using GraphPad Prism 8. […] In these cases the EC50 was noted as being higher than the maximum concentration used in the assay.

[3] = target: domestic cat Calcium Sensing Receptor (cCaSR) (Felis catus)
cCaSR [4] = target: T1, cCaSR
[5] = cCaSR activity, agonist assay, stable inducible cCaSR line, at least three wells
[6] = Supplementary Table I, PAM assay, dash = no activity
[7] = EC50 (M), agonist assay, stable inducible cCaSR line, > 0.01 M = maximal response not reached
[8] = EC50 Ago (M), Supplementary Table I, agonist assay, > 0.01 M = maximal response not reached

Row | Molecule | EC50 (cCaSR [1]; [5]) [M] | EC50 PAM (M) (cCaSR [2]; [6]) | EC50 (cCaSR [1]; [7]) [M] | also measured
1 | NC(CCP(=O)(O)O)C(=O)O (centres unmarked) [2-Amino-4-phosphonobutyric acid] | > 0.01 | - |  | 
2 | N[C@@H](CCS(=O)(=O)O)C(=O)O [L-Homocysteic acid] | > 0.01 | - |  | 
3 | S-Methylglutathione (peptide) |  |  |  | EC50 of agonist activity, luminescence (natClytin) in HEK T-Rex/natClytin cells inducibly expressing cCaSR, calcium-free buffer; activity grade ++ [3]: 4.42 mM
4 | [βAsp]-Gly |  |  |  | EC50 of agonist activity, luminescence (natClytin) in HEK T-Rex/natClytin cells inducibly expressing cCaSR, calcium-free buffer; activity grade + [3]: > 10 mM
5 | N[C@@H](CCC(=O)N[C@@H](CS)C(=O)O)C(=O)O [γ-Glu-Cys] | > 0.01 | - |  | 
6 | N[C@@H](CP(=O)(O)O)C(=O)O [L-( +)-2-Amino-3-phosphonopropionic acid, L-(+)-2-Amino-3-phosphonopropionic acid] |  |  |  | EC50 (cCaSR [1]; cCaSR activity): > 0.01 M; EC50 PAM (M) (cCaSR [2]): -
7 | NC(=O)CC[C@H](NC(=O)CC[C@H](N)C(=O)O)C(=O)O [γ-Glu-Gln] | > 0.01 | - |  | 
8 | COC(=O)C[C@H](N)C(=O)O [L-Aspartic acid β-methyl ester hydrochloride] | > 0.01 | - |  | agonist activity on cCaSR (in words) (cCaSR [4]): agonist activity
9 | N[C@@H](CCC(=O)N[C@@H](CCC(=O)O)C(=O)O)C(=O)O [γ-Glu-Glu] | 0.001 to 0.01 | - | 0.00207 | EC50 (cCaSR [1]; [8]): 0.00206 M
10 | N[C@@H](CCC(=O)NCC(=O)O)C(=O)O [γ-Glu-Gly] | > 0.01 | - |  | 
11 | CNC(C)C1CCC(N)C(OC2C(N)CC(N)C(OC3OCC(C)(O)C(NC)C3O)C2O)O1 (centres unmarked) [Gentamicin, reference compound] |  | - | 0.000989 | EC50 (cCaSR [1]; [8]): 0.00099 M
12 | N[C@@H](CCC(=O)N[C@@H](Cc1ccccc1)C(=O)O)C(=O)O [γ-Glu-Phe] | 0.001 to 0.01 | - | 0.00232 | 
13 | C[Se]C[C@H](N)C(=O)O [Se-(Methyl)selenocysteine] | 0.001 to 0.01 | - | 0.00447 | EC50 (cCaSR [1]; [8]): 0.00447 M; agonist activity on cCaSR (in words) (cCaSR [4]): agonist activity
14 | CSC[C@H](NC(=O)CC[C@H](N)C(=O)O)C(=O)NCC(=O)O [S-Methylglutathione] | 0.001 to 0.01 | - | 0.00442 | EC50 (cCaSR [1]; [8]): 0.00442 M
15 | NC(CCCCC(=O)O)C(=O)O (centres unmarked) [2-Aminopimelic acid] | > 0.01 | - |  | EC50 Ago (M) (cCaSR [4]; Supplementary Table I, agonist assay, dash = no activity): -
16 | N[C@@H](CC(=O)NCC(=O)O)C(=O)O [β-Asp-Gly] | > 0.01 | - |  | 
17 | N[C@H](CCC(=O)N[C@@H](Cc1c[nH]c2ccccc12)C(=O)O)C(=O)O [γ-D-Glu-Trp] |  | - | 0.0042 | 
18 | C[C@H](NC(=O)C[C@H](N)C(=O)O)C(=O)O [β-Asp-Ala] | > 0.01 | - |  | 
19 | NC[C@H]1O[C@H](O[C@H]2[C@H](O[C@@H]3O[C@H](CO)[C@@H](O)[C@H]3O)[C@@H](O)[C@H](N)C[C@@H]2N)[C@H](N)[C@@H](O)[C@@H]1O [Ribostamycin sulfate salt, reference compound] | > 0.01 | - |  | 

Row | Molecule | EC50 (cCaSR [1]; [5]) [M] | EC50 PAM (M) (cCaSR [2]; [6]) | EC50 (cCaSR [1]; [7]) [M] | also measured
20 | COC(=O)C(N)CC(=O)O (racemic) [DL-Aspartic acid α-methyl ester] | > 0.01 | - |  | agonist activity on cCaSR (in words) (cCaSR [4]): agonist activity
21 | CSCC[C@H](NC(=O)CC[C@H](N)C(=O)O)C(=O)O [γ-Glu-Met] | > 0.01 | - |  | EC50 (cCaSR [1]; EC50 Value (heat map Fig. 5), cCaSR agonists, heat map): 0.00687 M
22 | N[C@@H](CCC(=O)N[C@@H](Cc1c[nH]c2ccccc12)C(=O)O)C(=O)O [γ-Glu-Trp] | > 0.01 | - |  | 
23 | CN[C@@H]1[C@@H](O)[C@@H](O[C@@H]2[C@@H](O)[C@H](O[C@H]3OC(CN)=CC[C@H]3N)[C@@H](N)C[C@H]2N)OC[C@]1(C)O [Sisomicin sulfate salt, reference compound] |  | - | 0.000299 | EC50 (cCaSR [1]; [8]): 0.0003 M
24 | N[C@@H](Cc1ccc(OP(=O)(O)O)cc1)C(=O)O [O-Phospho-L-tyrosine] | > 0.01 | - |  | agonist activity on cCaSR (in words) (cCaSR [4]): agonist activity
25 | N[C@@H](CS(=O)(=O)O)C(=O)O [L-Cysteic acid monohydrate] | 0.001 to 0.01 | - | 0.00234 | EC50 (cCaSR [1]; [8]): 0.00234 M; agonist activity on cCaSR (in words) (cCaSR [4]): agonist activity
26 | N[C@@H](C[C@H](O)C(=O)O)C(=O)O [2S,4S-g-Hydroxy-L-glutamic acid] | > 0.01 | - |  | 
27 | NC(CC(C(=O)O)C(=O)O)C(=O)O (racemic) [γ-Carboxy-DL-glutamic acid] | > 0.01 | - |  | 
28 | N[C@@H](CCCC(=O)O)C(=O)O [L-2-Aminoadipic acid] | > 0.01 | - |  | 
29 | NC(=O)[C@@H](N)CCC(=O)O [L-Isoglutamine] | > 0.01 | - |  | agonist activity on cCaSR (in words) (cCaSR [4]): agonist activity
30 | N[C@@H](CC(=O)N[C@@H](Cc1ccccc1)C(=O)O)C(=O)O [β-Asp-Phe] | > 0.01 | - |  | 
31 | N[C@@H](CCC(=O)N[C@@H](Cc1ccc(O)cc1)C(=O)O)C(=O)O [γ-Glu-Tyr] | 0.001 to 0.01 | - | 0.00388 | EC50 (cCaSR [1]; [8]): 0.00388 M
32 | CC[C@H](NC(=O)CC[C@H](N)C(=O)O)C(=O)O | > 0.01 | - |  | 
33 | N[C@@H](CCC(=O)N[C@@H](CSCc1c[nH]c2ccccc12)C(=O)NCC(=O)O)C(=O)O [3-Glutathionyl-S-methylindole] | 0.001 to 0.01 | - | 0.00374 | EC50 (cCaSR [1]; [8]): 0.00375 M
34 | NC[C@@H]1O[C@H](O[C@H]2[C@@H](O)[C@H](O[C@@H]3[C@@H](O)[C@H](N)C[C@H](N)[C@H]3O[C@H]3O[C@H](CO)[C@@H](O)[C@H](O)[C@H]3N)O[C@@H]2CO)[C@H](N)[C@@H](O)[C@@H]1O [Paromomycin sulfate salt, reference compound] |  | - | 0.00108 | EC50 (cCaSR [1]; [8]): 0.00108 M
35 | CC(C)C[C@H](NC(=O)CC[C@H](N)C(=O)O)C(=O)O [γ-Glu-Leu] | > 0.01 | - |  | 
36 | N[C@@H](CCC(=O)N[C@@H](CSCCO)C(=O)NCC(=O)O)C(=O)O [S-(2-Hydroxyethyl)glutathione] | 0.001 to 0.01 | - | 0.00211 | EC50 (cCaSR [1]; [8]): 0.0021 M
37 | CC(C)C[C@H](NC(=O)C[C@H](N)C(=O)O)C(=O)O [β-Asp-Leu] | > 0.01 | - |  | EC50 (cCaSR [1]; [8]): > 0.01 M
38 | NC(CC(F)C(=O)O)C(=O)O (racemic) [4-Fluoro-DL-glutamic acid] | > 0.01 | - |  | 

From publication PMC8131363 (Scientific Reports, 2021)
